How the values were obtained:
[1] = molecular target: 5-HT1B (Homo sapiens, UniProt P28222); test: PDSP radioligand assay; format: binding
Protocol: (§1) The ex vivo binding affinities of σRs of CNY‐01 and CNY‐02 were measured using a competitive radioligand binding assay.^[ [35] ^]
(§2) Details of individual binding assay conditions and protocols are available at the NIMH PDSP website: https://pdsp.unc.edu/pdspweb/.

[2] = molecular target: T1, 5-HT1E (Homo sapiens, UniProt P28566); test: PDSP radioligand assay; format: binding
T1 construct: purchased NIMH Psychoactive Drug Screening Program (PDSP)
T1 sequence (P28566 whole entry): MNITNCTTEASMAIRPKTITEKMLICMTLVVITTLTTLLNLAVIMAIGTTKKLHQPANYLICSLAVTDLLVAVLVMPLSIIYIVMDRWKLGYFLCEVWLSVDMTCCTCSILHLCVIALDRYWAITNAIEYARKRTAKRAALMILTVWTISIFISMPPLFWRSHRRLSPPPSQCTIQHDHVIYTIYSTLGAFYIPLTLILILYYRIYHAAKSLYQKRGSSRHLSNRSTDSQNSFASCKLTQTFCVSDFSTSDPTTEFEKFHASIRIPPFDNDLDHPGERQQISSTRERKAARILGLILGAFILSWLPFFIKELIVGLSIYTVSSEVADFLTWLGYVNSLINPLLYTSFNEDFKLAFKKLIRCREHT
Protocol: as §1, §2

[3] = molecular target: D5 (Homo sapiens, UniProt P21918); test: PDSP radioligand assay; format: binding
Chain of D5 (P21918 whole entry): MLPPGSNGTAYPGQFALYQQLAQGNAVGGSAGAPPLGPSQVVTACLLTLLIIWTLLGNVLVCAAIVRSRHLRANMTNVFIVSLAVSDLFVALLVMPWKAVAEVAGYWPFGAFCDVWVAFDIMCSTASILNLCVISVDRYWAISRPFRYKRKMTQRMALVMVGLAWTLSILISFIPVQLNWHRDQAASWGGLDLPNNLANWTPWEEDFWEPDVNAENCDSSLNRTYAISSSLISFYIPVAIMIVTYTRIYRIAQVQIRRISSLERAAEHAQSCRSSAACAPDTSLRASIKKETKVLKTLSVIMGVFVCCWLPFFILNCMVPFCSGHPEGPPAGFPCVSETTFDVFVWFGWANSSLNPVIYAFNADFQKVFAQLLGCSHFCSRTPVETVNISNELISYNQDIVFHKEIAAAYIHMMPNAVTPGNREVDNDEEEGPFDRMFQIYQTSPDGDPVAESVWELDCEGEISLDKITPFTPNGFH
Protocol: as §1, §2

[4] = molecular target: H3 (Homo sapiens, UniProt Q9Y5N1); test: PDSP radioligand assay; format: binding
Chain of H3 (Q9Y5N1 whole entry): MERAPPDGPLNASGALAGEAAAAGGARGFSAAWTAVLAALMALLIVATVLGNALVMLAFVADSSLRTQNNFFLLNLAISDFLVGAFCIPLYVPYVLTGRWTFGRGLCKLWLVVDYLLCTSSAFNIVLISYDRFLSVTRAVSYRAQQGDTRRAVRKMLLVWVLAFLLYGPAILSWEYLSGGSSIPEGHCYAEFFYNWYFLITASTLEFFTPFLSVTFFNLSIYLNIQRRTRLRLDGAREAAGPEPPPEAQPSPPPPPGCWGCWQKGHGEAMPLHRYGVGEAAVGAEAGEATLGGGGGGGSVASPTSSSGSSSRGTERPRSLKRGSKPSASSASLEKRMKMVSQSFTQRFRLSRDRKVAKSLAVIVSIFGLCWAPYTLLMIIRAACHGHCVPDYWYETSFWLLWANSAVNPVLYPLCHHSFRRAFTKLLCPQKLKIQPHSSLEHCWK
Protocol: as §1, §2

[5] = molecular target: T2, M1 (Homo sapiens, UniProt P11229); test: PDSP radioligand assay; format: binding
T2 construct: purchased NIMH Psychoactive Drug Screening Program (PDSP)
T2 sequence (P11229 whole entry): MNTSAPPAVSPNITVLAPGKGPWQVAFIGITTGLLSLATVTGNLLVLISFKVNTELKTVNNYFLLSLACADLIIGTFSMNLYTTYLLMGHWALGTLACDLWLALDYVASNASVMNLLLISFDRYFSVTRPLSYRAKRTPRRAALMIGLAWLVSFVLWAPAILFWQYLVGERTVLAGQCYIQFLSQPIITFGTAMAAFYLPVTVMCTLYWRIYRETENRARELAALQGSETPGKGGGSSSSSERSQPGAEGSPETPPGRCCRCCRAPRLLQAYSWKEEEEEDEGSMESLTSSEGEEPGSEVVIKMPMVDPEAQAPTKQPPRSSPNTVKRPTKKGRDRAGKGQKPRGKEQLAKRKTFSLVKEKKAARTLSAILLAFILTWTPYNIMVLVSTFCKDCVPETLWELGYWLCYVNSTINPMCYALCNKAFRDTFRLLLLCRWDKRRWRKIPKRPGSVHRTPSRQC
Protocol: as §1, §2

[6] = molecular target: T3, M4 (Homo sapiens, UniProt P08173); test: PDSP radioligand assay; format: binding
T3 construct: purchased NIMH Psychoactive Drug Screening Program (PDSP)
T3 sequence (P08173 whole entry): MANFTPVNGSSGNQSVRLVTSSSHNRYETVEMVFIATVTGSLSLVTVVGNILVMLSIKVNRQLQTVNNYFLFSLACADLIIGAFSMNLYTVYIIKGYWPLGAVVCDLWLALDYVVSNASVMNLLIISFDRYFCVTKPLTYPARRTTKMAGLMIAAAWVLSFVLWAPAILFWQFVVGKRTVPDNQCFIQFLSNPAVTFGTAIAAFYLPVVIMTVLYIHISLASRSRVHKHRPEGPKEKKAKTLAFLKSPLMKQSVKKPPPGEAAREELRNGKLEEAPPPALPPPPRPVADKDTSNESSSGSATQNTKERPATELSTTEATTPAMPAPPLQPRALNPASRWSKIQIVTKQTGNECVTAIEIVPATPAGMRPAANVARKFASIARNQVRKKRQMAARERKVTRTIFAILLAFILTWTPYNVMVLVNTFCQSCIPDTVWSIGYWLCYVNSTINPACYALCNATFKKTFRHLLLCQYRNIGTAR

[7] = molecular target: T4, MOR (Homo sapiens, UniProt P35372); test: PDSP radioligand assay; format: binding
T4 construct: purchased NIMH Psychoactive Drug Screening Program (PDSP)
T4 sequence (P35372 whole entry): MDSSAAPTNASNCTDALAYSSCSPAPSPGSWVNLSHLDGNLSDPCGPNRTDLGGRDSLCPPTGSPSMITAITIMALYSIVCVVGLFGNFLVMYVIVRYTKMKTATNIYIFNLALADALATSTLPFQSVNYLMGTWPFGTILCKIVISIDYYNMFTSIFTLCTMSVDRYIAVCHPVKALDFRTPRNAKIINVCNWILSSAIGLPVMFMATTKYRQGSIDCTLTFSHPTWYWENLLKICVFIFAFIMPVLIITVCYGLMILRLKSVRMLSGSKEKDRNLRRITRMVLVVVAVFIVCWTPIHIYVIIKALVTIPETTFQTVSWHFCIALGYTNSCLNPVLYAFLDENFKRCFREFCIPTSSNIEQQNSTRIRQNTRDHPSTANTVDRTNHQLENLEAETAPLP

[8] = molecular target: NET (Homo sapiens, UniProt P23975); test: PDSP radioligand assay; format: binding
Chain of NET (P23975 whole entry): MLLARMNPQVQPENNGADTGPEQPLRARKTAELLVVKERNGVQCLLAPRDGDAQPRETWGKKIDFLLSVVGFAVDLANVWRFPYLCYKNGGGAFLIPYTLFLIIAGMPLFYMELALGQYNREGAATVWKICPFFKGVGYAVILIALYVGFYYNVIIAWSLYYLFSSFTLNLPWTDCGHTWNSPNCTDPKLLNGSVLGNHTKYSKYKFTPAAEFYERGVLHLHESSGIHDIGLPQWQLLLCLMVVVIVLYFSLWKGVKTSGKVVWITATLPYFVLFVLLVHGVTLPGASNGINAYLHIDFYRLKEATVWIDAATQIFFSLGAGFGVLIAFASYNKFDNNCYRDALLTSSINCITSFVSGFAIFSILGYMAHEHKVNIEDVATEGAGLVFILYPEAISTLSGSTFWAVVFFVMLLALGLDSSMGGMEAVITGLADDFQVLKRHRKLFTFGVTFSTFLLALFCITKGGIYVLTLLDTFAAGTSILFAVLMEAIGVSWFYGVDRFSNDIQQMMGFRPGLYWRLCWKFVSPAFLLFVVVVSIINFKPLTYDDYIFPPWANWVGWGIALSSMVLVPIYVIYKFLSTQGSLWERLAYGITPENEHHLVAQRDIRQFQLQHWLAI

[9] = molecular target: T5, σ1R (Mus musculus, UniProt O55242); test: Mice PET/CT imaging, baseline and self-blocking; format: in vivo, C57BL/6 mice
T5 construct: The PET/CT studies in mice followed previously reported procedures; from tissue; host or cells: mouse brain in vivo (C57BL/6 wild type; 5xFAD transgenic)
T5 sequence (O55242 whole entry): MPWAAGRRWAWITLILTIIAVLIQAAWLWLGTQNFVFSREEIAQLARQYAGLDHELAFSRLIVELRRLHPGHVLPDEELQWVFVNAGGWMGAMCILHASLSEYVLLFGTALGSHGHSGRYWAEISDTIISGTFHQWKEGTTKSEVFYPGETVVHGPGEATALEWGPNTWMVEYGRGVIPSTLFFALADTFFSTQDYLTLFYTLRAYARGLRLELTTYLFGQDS
Protocol: PET/CT imaging studies of [^11C]CNY‐01 and [^11C]CNY‐02 were performed in male C57BL/6 mice. […] The whole‐brain time‐activity curve (TAC) of each tracer was generated. […] To investigate the binding specificity of [^11C]CNY‐01 and [^11C]CNY‐02, blocking studies were carried out by pre‐administrating mice with corresponding unlabeled ligands. […] This is due to the receptors in peripheral tissues being occupied by CNY‐01, leading to more radiotracer entering the brain and quickly washing out. […] Of note, the TACs show an increase in brain tracer uptake during the blocking studies, which could be attributed to peripheral blocking effects. To address this, we normalized the brain uptake data to the maximum radioactivity observed in the blood (input function). This normalization allowed us to account for peripheral changes in tracer availability.
Figure 3 Mice PET/CT study with [^11C]CNY‐01 and [^11C]CNY‐02. A) Representative baseline and blocking (pre‐treated with 1.0 mg kg^−1 CNY‐01) PET/CT images of [^11C]CNY‐01 focused on the brain (summed 30‒60 min, n = 4). B) Whole brain time‐activity curves of [^11C]CNY‐01 for baseline and blocking mice. C) The normalized baseline and blocking TACs of [^11C]CNY‐01 (normalized the brain uptake curves with the maximum radioactivity in the blood at each time point). D) Representative baseline and blocking (pre‐treated with 1.0 mg kg^−1 CNY‐02) PET/CT images of [^11C]CNY‐02 focused on the brain (summed 30‒60 min, n = 4). E) Whole brain time‐activity curves of [^11C]CNY‐02 for baseline and blocking mice. F) The normalized baseline and blocking TACs of [^11C]CNY‐02 (normalized the brain uptake curves with the maximum radioactivity in the blood at each time point). Data were presented as mean ± standard error of the mean (SEM). Quantification of results was performed using Student's t‐test (***p < 0.0001).
The PET/CT studies in mice followed previously reported procedures with minor modifications.^[ [53], [54] ^] Mice (wild‐type: C57BL/6, male, 6‐month‐old; AD transgenic: 5xFAD, male, 6‐month‐old, n = 4 for each group) were anesthetized with inhalational isoflurane (Patterson Vet Supply, Inc., Greeley, CO, USA) at 2.0% in a carrier of 2 L min^−1 medical oxygen, and maintained at 1.0% isoflurane during the imaging scan. Mice were injected with radiotracer (200 µL) via lateral tail vein catheterization at the start of the dynamic PET scan (Gamma Medica, Northridge, CA, USA). For blocking studies, the blocking agent was administered via the tail vein 5 min before radiotracer injection. Dynamic PET acquisition lasted 60 min and was followed by computed tomography (CT) for anatomic co‐registration. […] Reconstructed images were exported from the scanner in DICOM format and were analyzed using PMOD (PMOD 4.01).

[10] = NHP plasma and metabolite analysis; format: in vivo, rhesus macaque; conditions: 30-minute mark
From the text: Understanding the metabolism of [^11C]CNY‐01 is crucial for modeling its distribution kinetics and evaluating safety profiles. Figure 4B illustrates the presence of radiometabolites in arterial plasma following a bolus injection of [^11C]CNY‐01. […] This characteristic makes it well‐suited for kinetic modeling and reducing background signal interference.
During the PET/MR scanning, macaque arterial blood samples were collected synchronously. Metabolite extraction and analysis were based on published methods.^[ [54], [60] ^] Briefly, the blood samples were centrifuged to isolate plasma. Next, protein precipitation was achieved by mixing the plasma with acetonitrile (v/v = 1). The mixture was then centrifuged again to obtain protein‐free plasma. A 1 mL aliquot of the protein‐free supernatant was diluted in 4 mL of deionized water, and the radiometabolites were analyzed by HPLC. HPLC condition: Mobile Phase A: water + 0.1% formic acid; Mobile Phase B: acetonitrile + 0.1% formic acid; separation method = 95/5 – 50/50 A/B from 3–8 min linear gradient; 50/50–5/95 A/B from 8–10 min linear gradient; 5/95 A/B from 10–11 min isocratic; flow rate 2 mL min^−1.

Chain of 5-HT1B (P28222 whole entry, species assumed): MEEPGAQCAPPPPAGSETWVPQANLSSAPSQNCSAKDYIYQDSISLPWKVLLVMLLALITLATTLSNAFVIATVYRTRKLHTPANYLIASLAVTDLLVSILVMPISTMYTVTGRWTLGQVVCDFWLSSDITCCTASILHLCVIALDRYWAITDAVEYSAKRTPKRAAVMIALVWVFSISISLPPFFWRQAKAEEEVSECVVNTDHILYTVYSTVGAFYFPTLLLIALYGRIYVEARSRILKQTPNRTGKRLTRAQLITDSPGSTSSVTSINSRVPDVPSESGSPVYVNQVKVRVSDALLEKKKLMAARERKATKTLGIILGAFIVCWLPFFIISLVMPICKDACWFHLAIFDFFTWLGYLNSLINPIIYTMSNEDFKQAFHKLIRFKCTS

| Structure (SMILES) | Ki [1] | inhibition at 10 µM [1] | inhibition at 10 µM [2] | inhibition at 10 µM [3] | Ki [4] | inhibition at 10 µM [4] | inhibition at 10 µM [5] | inhibition at 10 µM [6] | inhibition at 10 µM [7] | Ki [8] | inhibition at 10 µM [8] | maximum standard uptake value (SUV) in the brain ([9]; male C57BL/6 mice, baseline PET/CT) | blocking effect, brain uptake normalized to maximum radioactivity in the blood ([9]; pre-treated with 1.0 mg kg^−1 of the corresponding unlabeled ligand) | parent compound present in plasma [10] | Ki [3] |
| --- | --- | --- | --- | --- | --- | --- | --- | --- | --- | --- | --- | --- | --- | --- | --- |
| COc1ccc(-c2nc(C)c(Cl)c(OCCCN3CCCCC3)n2)cc1 [CNY-01, 5‐chloro‐2‐(4‐methoxyphenyl)‐4‐methyl‐6‐(3‐(piperidin‐1‐yl)propoxy)pyrimidine] | 3.2 µM | 79.8% | 31.2% | 27.2% | 1.06 µM | 62.8% | 22.3% | 20.6% | -16.4% | 2.1 µM | 50.4% | – | – | – | – |
| Cc1nc(-c2ccc(O[11CH3])cc2)nc(OCCCN2CCCCC2)c1Cl [[^11C]CNY-01] | – | – | – | – | – | – | – | – | – | – | – | 1.3 | significant blocking effect | over 30% | – |
| Cc1nc(-c2ccc(Cl)cc2)nc(OCCCN2CCN(C)CC2)c1Cl [CNY-02, 5‐chloro‐2‐(4‐chlorophenyl)‐4‐methyl‐6‐(3‐(4‐methylpiperazin‐1‐yl)propoxy)pyrimidine] | 3.74 µM | 60.3% | 27.8% | 58% | – | 42.9% | 36% | 31.1% | -14.4% | – | 0.14% | – | – | – | > 10 µM |

From publication PMC12140300, “Development of Carbon‐11 Labeled Pyrimidine Derivatives as Novel Positron Emission Tomography (PET) Agents Enabling Brain Sigma‐1 Receptor Imaging” (Advanced Science, 2025)
